# Measured values published in patent US12384776B2, “Compounds and uses thereof” (Foghorn Therapeutics Inc., priority 2019, dated 2025).
# Target: Nanoluciferase-BRD9 fusion protein (3×FLAG-NLuc-BRD9) in SYO-1 cells (Homo sapiens (Human), UniProt Q9H8M2)
# Assay: SYO1 BRD9 NanoLuc degradation assay
# Assay type: cell-based
# Conditions: SYO-1 cells expressing 3×FLAG-NLuc-BRD9, 6 hours incubation, top dose 1 μM
# Protocol: Procedure: A stable SYO-1 cell line expressing 3×FLAG-NLuc-BRD9 was generated. On day 0 cells were seeded in 30 μL media into each well of 384-well cell culture plates. The seeding density was 8000 cells/well. On day 1, cells were treated with 30 nL DMSO or 30 nL of 3-fold serially DMSO-diluted compounds (10 points in duplicates with 1 μM as final top dose). Subsequently plates were incubated for 6 hours in a standard tissue culture incubator and equilibrated at room temperature for 15 minutes. Nanoluciferase activity was measured by adding 15 μL of freshly prepared Nano-Glo Luciferase Assay Reagent (Promega N1130), shaking the plates for 10 minutes and reading the bioluminescence using an EnVision reader.
# Results: The Inhibition % was calculated using the following formula: % Inhibition=100×(LumHC−LumSample)/(LumHC−LumLC). DMSO treated cells are employed as High Control (HC) and 1 μM of a known BRD9 degrader standard treated cells are employed as Low Control (LC).
# Nanoluciferase-BRD9 fusion protein (3×FLAG-NLuc-BRD9) in SYO-1 cells, sequence (Q9H8M2 whole entry, the tested form may be a part): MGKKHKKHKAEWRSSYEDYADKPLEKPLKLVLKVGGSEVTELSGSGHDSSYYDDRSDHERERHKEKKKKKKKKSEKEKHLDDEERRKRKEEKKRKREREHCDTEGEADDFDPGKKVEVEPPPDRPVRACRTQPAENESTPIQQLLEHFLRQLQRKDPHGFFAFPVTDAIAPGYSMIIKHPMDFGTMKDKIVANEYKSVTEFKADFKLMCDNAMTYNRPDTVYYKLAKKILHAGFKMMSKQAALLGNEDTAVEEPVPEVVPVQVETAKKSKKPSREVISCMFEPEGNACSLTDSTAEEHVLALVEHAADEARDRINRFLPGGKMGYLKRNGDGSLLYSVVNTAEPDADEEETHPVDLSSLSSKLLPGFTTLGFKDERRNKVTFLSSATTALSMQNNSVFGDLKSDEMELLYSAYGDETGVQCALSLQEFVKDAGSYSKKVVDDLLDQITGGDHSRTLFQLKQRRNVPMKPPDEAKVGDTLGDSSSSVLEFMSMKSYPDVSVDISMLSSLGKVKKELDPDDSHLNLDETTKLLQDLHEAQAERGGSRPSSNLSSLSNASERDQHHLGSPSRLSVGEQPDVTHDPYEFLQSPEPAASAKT
row,SMILES,IC50
1,[2H]C([2H])([2H])NC(=O)N1CCc2c(-c3cc(OC)c(CN4CCC(CN5CCC6(CC5)CC(Oc5ccc7c(c5)C(=O)N(C5CCC(=O)NC5=O)C7=O)C6)CC4)c(OC)c3)cn(C)c(=O)c2C1 (stereo not drawn) [Compound D47],< 10 nM
2,[2H]C([2H])([2H])NC(=O)N1CCc2c(-c3cc(OC)c(CN4CCN(CCC5CCN(c6ccc7c(c6)C(=O)N(C6CCC(=O)NC6=O)C7=O)CC5)CC4)c(OC)c3)cn(C)c(=O)c2C1 (stereo not drawn) [Compound D48],< 10 nM
3,CNC(=O)N1CCc2c(-c3cc(OC)c(CN4CCC(CCN5CCN(c6ccc7c(c6OC)CN(C6CCC(=O)NC6=O)C7=O)CC5)CC4)c(OC)c3)cn(C)c(=O)c2C1 (stereo not drawn) [Compound D49],< 10 nM
4,CNC(=O)N1CCc2c(-c3cc(OC)c(CN4CCC(CCN5CCN(c6cc7c(c(OC)c6)C(=O)N(C6CCC(=O)NC6=O)C7)CC5)CC4)c(OC)c3)cn(C)c(=O)c2C1 (stereo not drawn) [Compound D50],10 to 100 nM
5,CNC(=O)N1CCc2c(-c3cc(OC)c(CN4CC(C(C)N5CCC6(CC5)CN(c5ccc7c(c5)CN(C5CCC(=O)NC5=O)C7)C6)C4)c(OC)c3)cn(C)c(=O)c2C1 (stereo not drawn) [Compound D51],< 10 nM
6,CNC(=O)N1CCc2c(-c3cc(OC)c(CN4CC(C(C)N5CCC6(CC5)CN(c5ccc7c(c5)C(=O)N(C5CCC(=O)NC5=O)C7)C6)C4)c(OC)c3)cn(C)c(=O)c2C1 (stereo not drawn) [Compound D52],< 10 nM
7,CNC(=O)N1CCc2c(-c3cc(OC)c(CN4CC(N(C)c5ccc6c(c5)C(=O)N(C5CCC(=O)NC5=O)C6)C4)c(OC)c3)cn(C)c(=O)c2C1 (stereo not drawn) [Compound D53],10 to 100 nM
8,CNC(=O)N1CCc2c(-c3cc(OC)c(CN4CCC(CCN5CCN(c6ccc7c(c6)C6(CC6)N(C6CCC(=O)NC6=O)C7=O)CC5)CC4)c(OC)c3)cn(C)c(=O)c2C1 (stereo not drawn) [Compound D54],≥ 1000 nM
9,CNC(=O)N1CCc2c(-c3cc(Cl)c(CN4CCN(CCC5CCN(c6ccc7c(c6)CN(C6CCC(=O)NC6=O)C7=O)CC5)CC4)c(OC)c3)cn(C)c(=O)c2C1 (stereo not drawn) [Compound D55],< 10 nM
10,CNC(=O)N1CCc2c(-c3cc(OC)c(CN4CCC(CN5CCC6(CC5)CN(c5ccc7c(c5)CN(C5CCC(=O)NC5=O)C7=O)C6)CC4)c(OC)c3)cn(C)c(=O)c2C1 (stereo not drawn) [Compound D56],< 10 nM
11,CNC(=O)N1CCc2c(-c3cc(OC)c(CN4CCC(CCN5CCN(c6ccc7nn(C8CCC(=O)NC8=O)c(=O)n7c6)CC5)CC4)c(OC)c3)cn(C)c(=O)c2C1 (stereo not drawn) [Compound D57],10 to 100 nM
12,CNC(=S)N1CCc2c(-c3cc(OC)c(CN4CCC(CCN5CCN(c6ccc7c(c6)CN(C6CCC(=O)NC6=O)C7=O)CC5)CC4)c(OC)c3)cn(C)c(=O)c2C1 (stereo not drawn) [Compound D58],< 10 nM
13,CNC(=O)N1CCc2c(-c3cc(OC)c(C(C)N4CC(CN5CCC6(CC5)CN(c5ccc7c(c5)C(=O)N(C5CCC(=O)NC5=O)C7)C6)C4)c(OC)c3)cn(C)c(=O)c2C1 (stereo not drawn) [Compound D59],10 to 100 nM
14,CNC(=O)N1CCc2c(-c3cc(OC)c(CN4CCN(c5cnn(C6CCC(=O)NC6=O)c5)CC4)c(OC)c3)cn(C)c(=O)c2C1 (stereo not drawn) [Compound D60],100 to 1000 nM
15,CNC(=O)N1CCc2c(-c3cc(OC)c(CN4CCN(c5ccn6c(=O)n(C7CCC(=O)NC7=O)nc6c5)CC4)c(OC)c3)cn(C)c(=O)c2C1 (stereo not drawn) [Compound D61],100 to 1000 nM
16,CNC(=O)N1CCc2c(-c3cc(OC)c(CN4CCN(c5nn(C6CCC(=O)NC6=O)c(=O)n5C)CC4)c(OC)c3)cn(C)c(=O)c2C1 (stereo not drawn) [Compound D62],≥ 1000 nM

row,SMILES,IC50
1,CNC(=S)N1CCc2c(-c3cc(OC)c(CN4CCC(CCN5CCN(c6ccc7c(c6)C(=O)N(C6CCC(=O)NC6=O)C7=O)CC5)CC4)c(OC)c3)cn(C)c(=O)c2C1 (stereo not drawn) [Compound D63],< 10 nM
2,COC(=O)N1CCc2c(-c3cc(OC)c(CN4CCC(CCN5CCN(c6ccc7c(c6)C(=O)N(C6CCC(=O)NC6=O)C7=O)CC5)CC4)c(OC)c3)cn(C)c(=O)c2C1 (stereo not drawn) [Compound D64],< 10 nM
3,CNC(=O)N1CCc2c(-c3cc(OC)c(CN4CCC(CCN5CCN(c6ccc7nc(C)n(C8CCC(=O)NC8=O)c(=O)c7c6)CC5)CC4)c(OC)c3)cn(C)c(=O)c2C1 (stereo not drawn) [Compound D65],100 to 1000 nM
4,COc1cc(-c2cn(C)c(=O)c3c2OCCN3)cc(OC)c1CN1CC(CN2CCC3(CC2)CN(c2ccc4c(c2)C(=O)N(C2CCC(=O)NC2=O)C4)C3)C1 (stereo not drawn) [Compound D66],< 10 nM
5,CNC(=O)N1CCc2c(-c3cc(OC)c(CN4CCC(CCCN5CCN(C6CCC(=O)NC6=O)C(=O)C5)CC4)c(OC)c3)cn(C)c(=O)c2C1 (stereo not drawn) [Compound D67],100 to 1000 nM
6,CNC(=O)N1CCc2c(-c3cc(OC)c(CN4CCC(CCN5CCC(c6ccc7c(c6)CN(C6CCC(=O)NC6=O)C7=O)CC5)CC4)c(OC)c3)cn(C)c(=O)c2C1 (stereo not drawn) [Compound D68],< 10 nM
7,CNC(=O)N1CCc2c(-c3cc(OC)c(CN4CCC(CCN5CCN(c6ccc7c(c6)C(=O)N(C6CCC(=O)NC6=O)C7)CC5)CC4)c(OC)c3)cn(C)c(=O)c2C1 (stereo not drawn) [Compound D69],< 10 nM
8,CNC(=O)N1CCc2c(-c3cc(OC)c(CN4CCN(CCC5CCN(c6ccc7c(c6)C(=O)N(c6ccc(F)cc6F)C7=O)CC5)CC4)c(OC)c3)cn(C)c(=O)c2C1 [Compound D70],≥ 1000 nM
9,CNC(=O)N1CCc2c(-c3cc(OC)c(CN4CCN(CCN5CCC(c6ccc7c(c6)C(=O)N(C6CCC(=O)NC6=O)C7)CC5)CC4)c(OC)c3)cn(C)c(=O)c2C1 (stereo not drawn) [Compound D71],< 10 nM
10,CNC(=O)N1CCc2c(-c3cc(OC)c(CN4CCN(CCN5CCC(c6ccc7c(c6)CN(C6CCC(=O)NC6=O)C7=O)CC5)CC4)c(OC)c3)cn(C)c(=O)c2C1 (stereo not drawn) [Compound D72],< 10 nM
11,CNC(=O)N1CCc2c(-c3cc(OC)c(CN4CCC(CCN5CCC(c6ccc7c(c6)C(=O)N(C6CCC(=O)NC6=O)C7)CC5)CC4)c(OC)c3)cn(C)c(=O)c2C1 (stereo not drawn) [Compound D73],< 10 nM
12,CNC(=O)N1CCc2c(-c3cc(OC)c(CN4CCC(CCN5CCN(C67CC8CC(CC(C8)C6)C7)CC5)CC4)c(OC)c3)cn(C)c(=O)c2C1 [Compound D74],≥ 1000 nM
13,CNC(=O)N1CCc2c(-c3cc(OC)c(CN4CCC(CCN5CCN(c6cc7c(c(F)c6F)CN(C6CCC(=O)NC6=O)C7=O)CC5)CC4)c(OC)c3)cn(C)c(=O)c2C1 (stereo not drawn) [Compound D75],10 to 100 nM
14,CNC(=O)N1CCc2c(-c3cc(OC)c(CN4CCC(CCN5CCN(c6ccc(-c7cnn(C8CCC(=O)NC8=O)c7)cc6)CC5)CC4)c(OC)c3)cn(C)c(=O)c2C1 (stereo not drawn) [Compound D76],< 10 nM
15,CNC(=O)N1CCc2c(-c3cc(OC)c(CN4CCC(CCN5CCN(c6ccn7c(=O)n(C8CCC(=O)NC8=O)nc7c6)CC5)CC4)c(OC)c3)cn(C)c(=O)c2C1 (stereo not drawn) [Compound D77],10 to 100 nM

# The next lines start with the values.
row,IC50,SMILES
1,< 10 nM,CNC(=O)N1CCc2c(-c3cc(OC)c(CN4CCC(CCN5CCN(c6c(F)cc7c(c6F)C(=O)N(C6CCC(=O)NC6=O)C7=O)CC5)CC4)c(OC)c3)cn(C)c(=O)c2C1 (stereo not drawn) [Compound D78]
2,≥ 1000 nM,CNC(=O)N1CCc2c(-c3cc(CN4CCC(CCN5CCN(c6ccc7c(c6)C(=O)N(C6CCC(=O)NC6=O)C7=O)CC5)CC4)cc(OC)c3)cn(C)c(=O)c2C1 (stereo not drawn) [Compound D79]
3,< 10 nM,[2H]C1([2H])CC([2H])(N2C(=O)c3ccc(N4CCN(CCC5CCN(Cc6c(OC)cc(-c7cn(C)c(=O)c8c7CCN(C(=O)NC)C8)cc6OC)CC5)CC4)cc3C2=O)C(=O)NC1=O (stereo not drawn) [Compound D80]
4,< 10 nM,COc1cc(-c2cn(C)c(=O)c3c2CCN(C(=O)NC2CC2)C3)cc(OC)c1CN1CCC(CCN2CCN(c3ccc4c(c3)C(=O)N(C3CCC(=O)NC3=O)C4=O)CC2)CC1 (stereo not drawn) [Compound D81]
5,< 10 nM,CNC(=O)N1CCc2c(-c3cc(OC)c(CN4CCC(CCN5CCN(c6ccc7c(c6)C(=O)N(C6CCC(=O)N(COC(=O)OC(C)C)C6=O)C7=O)CC5)CC4)c(OC)c3)cn(C)c(=O)c2C1 (stereo not drawn) [Compound D82]
6,< 10 nM,CNC(=O)N1CCc2c(-c3cc(OC)c(CN4CCC(CCN5CCN(c6cc7c(cc6F)CN(C6CCC(=O)NC6=O)C7=O)CC5)CC4)c(OC)c3)cn(C)c(=O)c2C1 (stereo not drawn) [Compound D83]
7,< 10 nM,CNC(=O)N1CCc2c(-c3cc(OC)c(CN4CCC(CCN5CCN(c6cc7c(cc6F)C(=O)N(C6CCC(=O)NC6=O)C7)CC5)CC4)c(OC)c3)cn(C)c(=O)c2C1 (stereo not drawn) [Compound D84]
8,< 10 nM,COc1cc(-c2cn(C)c(=O)c3c2CCN(C(=O)NC2CC2)C3)cc(OC)c1CN1CCC(CCN2CCN(c3ccc4c(c3)CN(C3CCC(=O)NC3=O)C4=O)CC2)CC1 (stereo not drawn) [Compound D85]
9,< 10 nM,CNC(=O)N1CCc2c(-c3cc(OC)c(CN4CCC(CCN5CCN(c6cc(F)c7c(c6)C(=O)N(C6CCC(=O)NC6=O)C7=O)CC5)CC4)c(OC)c3)cn(C)c(=O)c2C1 (stereo not drawn) [Compound D86]
10,< 10 nM,CNC(=O)N1CCc2c(-c3cc(OC)c(CN4CCC(CCN5CCN(c6ccc7c(c6F)C(=O)N(C6CCC(=O)NC6=O)C7=O)CC5)CC4)c(OC)c3)cn(C)c(=O)c2C1 (stereo not drawn) [Compound D87]
11,< 10 nM,CNC(=O)N1CCc2c(-c3cc(OC)c(CN4CCC(CCN5CCN(c6cc7c(cc6F)C(=O)N(C6CCC(=O)NC6=O)C7=O)CC5)CC4)c(OC)c3)cn(C)c(=O)c2C1 (stereo not drawn) [Compound D88]
12,< 10 nM,COc1cc(-c2cn(C)c(=O)c3c2CCN(C(=O)NCCCCCCCCNc2cccc4c2CN(C2CCC(=O)NC2=O)C4=O)C3)cc(OC)c1CN1CCC1 (stereo not drawn) [Compound D89]
13,10 to 100 nM,COc1cc(-c2cn(C)c(=O)c3c2CCN(C(=O)NCCCCCOc2cccc4c2C(=O)N(C2CCC(=O)NC2=O)C4=O)C3)cc(OC)c1CN1CCC1 (stereo not drawn) [Compound D90]
14,< 10 nM,CNC(=O)N1CCc2c(-c3cc(F)c(CN4CCC(CCN5CCN(c6ccc7c(c6)C(=O)N(C6CCC(=O)NC6=O)C7=O)CC5)CC4)c(OC)c3)cn(C)c(=O)c2C1 (stereo not drawn) [Compound D91]
